Assay results reported in US20060269613A1, “Composition containing nanoparticles containing water-soluble basic drug encpsulated therein” (priority 2003, published 2006).

Assay: Ratio of lactone ring-closed TPT over time in 50% human plasma at 37° C. (HPLC)
Format: in vitro ADME
Conditions: 50% human plasma diluted with PBS
Method: Fifty μL of TPT-containing PLA particle formulation or 50 μL of aqueous TPT solution (0.3 mg/mL) containing 50 mg/mL of PEG-4000 and 50 mg/mL of mannitol was freeze-dried. This freeze-dried product (control) and the above-mentioned nanoparticles were each dissolved in 1 mL of 50% human plasma (diluted with PBS), and were incubated at 37° C. For the purpose of investigating the ratio of ring-opening of lactone ring of TPT with lapse of time, 100 μL was taken out from the incubated sample after 0 hour, 2 hours and 4 hours, and was added to 900 μL of methanol. Plasma protein was denatured while the equilibrium of TPT structure was maintained, and, then, the samples were centrifuged at 10000 rpm for 10 minutes so that protein components were precipitated, and, then, the concentration of lactone ring-opened TPT and that of lactone ring-closed TPT in supernatant were measured with HPLC. An aqueous solution of TPT (pH 3; phosphate*hydro-chloride buffer) was used for control.
(§1) Fifty μL of TPT-containing nanoparticle formulation or a 50 μL of aqueous TPT solution (0.3 mg/mL) containing 50 mg/mL of PEG-4000 and 50 mg/mL of mannitol was freeze-dried, and was dissolved in 1 mL of 50% human plasma (diluted with PBS), and were incubated at 37° C. For the purpose of investigating the ratio of ring-opening and ring-closing of lactone ring of TPT with lapse of time, 100 μL of incubated sample was taken out after 0 hour, 2 hours and 4 hours, and was added to 900 μL of methanol. Plasma protein was denatured while the equilibrium of TPT structure was maintained, and, then, the sample was centrifuged at 10000 rpm for 10 minutes so that protein components were precipitated, and, then, the concentration of lactone ring-opened TPT and that of lactone ring-closed TPT in supernatant were measured with HPLC. An aqueous solution of TPT (pH 3; phosphate*hydrochloride buffer) was used for control.
as §1, with “TPT-containing micellar” for “TPT-containing”, “or” for “or a”, “ring-closing” for “ring-closing of lactone ring”, “HPLC.” for “HPLC. An aqueous solution of TPT (pH 3; phosphate*hydrochloride buffer) was used for control.”
as §1, with “nanocapsule particle” for “nanoparticle”, “its freeze-dried product” for “a 50 μL of aqueous TPT solution (0.3 mg/mL) containing 50 mg/mL of PEG-4000 and 50 mg/mL of mannitol was freeze-dried, and”, “ring-closing” for “ring-closing of lactone ring”, “HPLC.” for “HPLC. An aqueous solution of TPT (pH 3; phosphate*hydrochloride buffer) was used for control.”

CC[C@@]1(O)C(=O)OCc2c1cc1n(c2=O)Cc2cc3c(CN(C)C)c(O)ccc3nc2-1 [Control]
ratio of ring-closed TPT in 50% human plasma, 0 Hour (Table 1 (Example 1)): 97.5% | ratio of ring-closed TPT in 50% human plasma, 2 Hours (Table 1 (Example 1)): 24.6% | ratio of ring-closed TPT in 50% human plasma, 4 Hours (Table 1 (Example 1)): 19.4% | ratio of ring-closed TPT in 50% human plasma, 0 Hour (Table 2 (Example 2)): 98.8% | ratio of ring-closed TPT in 50% human plasma, 2 Hours (Table 2 (Example 2)): 20.8% | ratio of ring-closed TPT in 50% human plasma, 4 Hours (Table 2 (Example 2)): 13.4% | ratio of ring-closed TPT in 50% human plasma, 0 Hour (Table 3 (Example 3)): 98.9% | ratio of ring-closed TPT in 50% human plasma, 2 Hours (Table 3 (Example 3)): 18.6% | ratio of ring-closed TPT in 50% human plasma, 4 Hours (Table 3 (Example 3)): 14.6% | ratio of ring-closed TPT in 50% human plasma, 0 Hour (Table 4 (Example 5)): 98.2% | ratio of ring-closed TPT in 50% human plasma, 2 Hours (Table 4 (Example 5)): 14.4% | ratio of ring-closed TPT in 50% human plasma, 4 Hours (Table 4 (Example 5)): 11.9%
